This assay has as its system M. tuberculosis H37Rv growth inhibition. Nature of the assay: Confirmatory growth inhibition assay against Mycobacterium tuberculosis H37Rv, potency (AID 1949).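 Also: bacteria grown 7 days with compound before Alamar blue readout.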

The term IC50 denotes the point on the concentration scale where inhibition reaches its midpoint.

In brackets after ≈: the same amount, converted by molar mass. Inconclusive results are not listed. Activity calls are given as the source filed them. No rule for the calls is given here.

For `COc1ccccc1-c1coc2cc(OCC(=O)OCc3ccccc3)ccc2c1=O`, the half-inhibitory concentration (IC50) was 0.35 µg/mL (≈ 0.84 µM).
Next, `CC(=O)c1cccc(Nc2nc(-c3ccccn3)cs2)c1`: 0.98 µg/mL (≈ 3.32 µM); `CCc1ccc(OCC(=O)NC2CCCCC2)c(Br)c1`: > 50 µg/mL (inactive); `COc1ccccc1C1=Nc2cccc3cccc(c23)N1`: 0.24 µg/mL (≈ 0.875 µM).
Take `CCCC(=O)NC(=S)Nc1cccc(C(F)(F)F)c1`: the IC50 was 2.69 µg/mL (≈ 9.27 µM).
On to `CCc1ccc(C(=O)NC(=S)Nc2ccc(C(=O)OC)cc2)cc1`, for which the IC50 is 3.98 µg/mL (≈ 11.6 µM).
As for `CC(NS(=O)(=O)c1cccc(Cl)c1)C(=O)Nc1ccc(Br)cc1F` (stereo unspecified), the IC50 is 3 µg/mL (≈ 6.89 µM).
As for `Fc1ccc(C2=CC(c3ccc(Br)cc3)n3nnnc3N2)cc1` (stereo unspecified), the IC50 is 22.6 µg/mL (≈ 60.7 µM).
Consider `CSc1ncc(C(=O)NCc2ccco2)cn1`, for which the half-maximal inhibitory concentration (IC50) was 3.04 µg/mL (≈ 12.2 µM).
Turning to `CCOC(=O)c1ccc(COC(=O)c2cccc([N+](=O)[O-])c2)cc1`, the IC50 was 1.11 µg/mL (≈ 3.37 µM).
On to `O=C(CC1Sc2ccc(Cl)cc2NC1=O)Nc1ccc([N+](=O)[O-])cc1` (stereo unspecified), for which the IC50 is 2.53 µg/mL (≈ 6.7 µM).
Next, `Cc1c(OC(=O)c2cccc([N+](=O)[O-])c2)ccc2c1CCCC2`: 2.64 µg/mL (≈ 8.48 µM); `Cc1occc1C(=O)Nc1sc(Cc2ccccc2)cc1C(N)=O`: > 50 µg/mL (inactive).
As for `CN(C)S(=O)(=O)c1ccc(NC(=S)NC(=O)CCCOc2ccc(Cl)cc2Cl)cc1`, the IC50 is 5.38 µg/mL (≈ 11 µM).
In the case of `CCCCOc1ccc(S(=O)(=O)Nc2ccc(C)c(Cl)c2)cc1`, the IC50 was 5.13 µg/mL (≈ 14.5 µM).
Regarding `CC(C)C1C(c2ccccc2)NC(c2ccccc2)CC1(O)C#Cc1ccccc1` (stereo unspecified), the IC50 is 9.22 µg/mL (≈ 23.3 µM).
As for `CCc1ccccc1NC(=O)c1cc2cc([N+](=O)[O-])cc(OC)c2oc1=O`, the IC50 was > 50 µg/mL (inactive).
As to `CCOC(=O)Cc1ccc2c(=O)c(Oc3ccc(F)cc3)coc2c1`, the IC50 is 33 µg/mL (≈ 96.3 µM).
`CCCCC(=O)Nc1ccc(C(=O)N2CCN(c3cccc(C(F)(F)F)c3)CC2)cc1`: the half-inhibitory concentration (IC50) was 9.86 µg/mL (≈ 22.7 µM).
For `Cc1cccc(OCCn2cnc3cc(C)c(C)cc32)c1`, the IC50 is 4.52 µg/mL (≈ 16.1 µM).
Under `CC1CCN(c2nnnc3c2sc2nc(N4CCOCC4)c4c(c23)CCCC4)CC1` stands > 50 µg/mL (inactive).
On to `CCCCn1c(=N)n(CC(O)COc2cccc(C)c2)c2ccccc21` (stereo unspecified), for which the IC50 is 6.05 µg/mL (≈ 17.1 µM).
Under `C=CCN1C(=O)C(O)(CC(=O)c2ccc(C)cc2C)c2ccccc21` (stereo unspecified) stands 14.6 µg/mL (≈ 43.5 µM).
Next, `CCOC(=O)C1=CN(C(C)C)C=C(C(=O)OCC)C1c1cc(OC)ccc1OC`: > 50 µg/mL (inactive); `CCOc1ccccc1NC(=O)COc1ccc(C(C)C)cc1`: 5.01 µg/mL (≈ 16 µM).
`O=C(COc1cccc(Cl)c1)Nc1ccc(F)c(Cl)c1`: the half-maximal inhibitory concentration (IC50) was 5.7 µg/mL (≈ 18.1 µM).
As for `CCCCC(=O)NC(=S)Nc1ccc(N2CCN(C(=O)c3ccco3)CC2)c(Cl)c1`, the IC50 was 0.67 µg/mL (≈ 1.49 µM).
With `CC1=NN(C(=S)Cc2ccccc2)C(C)(O)C1` (stereo unspecified), the IC50 was 2.79 µg/mL (≈ 11.2 µM).
Next, `CCC(C)c1ccc(OCC(=O)NC2C3CC4CC(C3)CC2C4)cc1` (stereo unspecified): 7.97 µg/mL (≈ 23.3 µM).
On to `Cc1ccccc1C(=O)Nc1sc2c(c1C(=O)NCCO)CCC(C(C)(C)C)C2` (stereo unspecified), for which the IC50 is > 50 µg/mL (inactive).
Regarding `Cc1ccc(NC(=O)C23CC4CCC(CC(C4)C2)C3)cc1`, the 50% inhibitory concentration (IC50) was 0.19 µg/mL (≈ 0.67 µM).
Consider `CCOC(=O)N1CCc2c(sc(NC(=O)c3ccc([N+](=O)[O-])o3)c2C(=O)Nc2ccc(OCC)cc2)C1`, for which the IC50 is 5.64 µg/mL (≈ 10.7 µM).
On to `Cc1cc2ncn(CCCOc3ccccc3C)c2cc1C`, for which the IC50 is 4.63 µg/mL (≈ 15.7 µM).
Consider `Cc1ccc(C(=O)Nc2ccc(C(F)(F)F)cc2)s1`, for which the IC50 was 4.67 µg/mL (≈ 16.4 µM).
In the case of `CCSCC(=O)N1CCN(c2nnc(-c3ccccc3)c3ccccc23)CC1`, the IC50 is 14.5 µg/mL (≈ 36.9 µM).
Next, `Oc1ccc(CNc2ccccc2O)cc1`: 1.02 µg/mL (≈ 4.74 µM); `CCOC(=O)c1ccc(NC(=S)Nc2cc(Cl)c(Cl)cc2Cl)cc1`: 2.72 µg/mL (≈ 6.74 µM); `CCOC(=O)C(C)Oc1noc2nc(-c3ccccc3)ccc12` (stereo unspecified): 3.92 µg/mL (≈ 12.6 µM).
Regarding `Cc1ccc(C)c(NC(=O)c2ccc(-c3ccccc3Cl)o2)c1`, the IC50 was 12.9 µg/mL (≈ 39.7 µM).
Next, `CCOc1ccc(C(=O)Nc2ccc(N3CCN(C(=O)c4cccs4)CC3)c(Cl)c2)cc1Br`: 0.53 µg/mL (≈ 0.966 µM).
As for `O=C(Nc1cccc([N+](=O)[O-])c1)N1CCN(Cc2ccc(Cl)cc2Cl)CC1`, the IC50 was 5.06 µg/mL (≈ 12.4 µM).
Under `COc1ccc(-c2c(C)oc3cc(OCC(=O)OC(C)C)ccc3c2=O)cc1OC` stands 1.36 µg/mL (≈ 3.3 µM); under `C#CCSc1nnc(-c2ccc(Br)cc2)o1`, 0.94 µg/mL (≈ 3.18 µM).
On to `Cc1ccc(C(C)(C)C)c(OCCCn2ccnc2)c1`, for which the IC50 was 3.87 µg/mL (≈ 14.2 µM).
Turning to `CCn1c2ccc(F)cc2c2nc3ccccc3nc21`, the 50% inhibitory concentration (IC50) is 6.92 µg/mL (≈ 26.1 µM).
As to `Cc1cccc(OCCCn2cnc3cc(C)c(C)cc32)c1`, the 50% inhibitory concentration (IC50) was 1.84 µg/mL (≈ 6.25 µM).
Under `Cc1cccc2c1N(CCOc1ccc(C(C)(C)C)cc1)C(=O)C2=O` stands > 50 µg/mL (inactive).
For `Cc1ccc(C(=O)CCNc2ccc(F)cc2)cc1`, the IC50 is > 50 µg/mL (inactive).
Turning to `CC(=O)N(C)c1ccc(OCC(O)Cn2c3ccc(Cl)cc3c3cc(Cl)ccc32)cc1` (stereo unspecified), the half-maximal inhibitory concentration (IC50) was 2.96 µg/mL (≈ 6.47 µM).
Regarding `O=C(O)c1ccc(NC(=S)NC(=O)c2ccc(-c3ccccc3)cc2)cc1`, the half-inhibitory concentration (IC50) was 1.58 µg/mL (≈ 4.2 µM).
As to `CCc1ccc(O)c(NC(=S)NC(=O)c2cccc3ccccc23)c1`, the IC50 was 0.16 µg/mL (≈ 0.457 µM).

These data come from PubChem BioAssay AID1949 (Southern Research Institute, 2009).
